# In patent US11952338B2, “Anticonvulsant compounds” (OWEN-BARRY PHARMACEUTICALS INC., priority 2017, dated 2024):
# Experiments:
# [1] = tested on: rodent model of traumatic brain injury/stress; experiment: rodent model of traumatic brain injury/stress; type: in vivo, rat
# Source text: FIG. 6 is an electrographic record of activity from the amygdala of a rat which has undergone traumatic brain injury and has been stressed (tail pinch). […] After moderate traumatic brain injury under control conditions, stress induces epileptiform activity in the amygdala. This activity is shown on the left in FIG. 6, where a stressor induces increased activity. […] On the right in FIG. 6, it is evident that the compound of Example 1 prevents the induction of this response and is particularly effective in reducing high frequency activity (i.e. >250 Hz) that is considered to be epileptogenic. This electrophysiological response in the control traumatic brain injury rats was accompanied by stage 2 to 3 seizures (Racine scale: av. 2.0±0.5 n=6 rats). These behavioral responses were blocked in the traumatic brain injury rats treated with the compound of Example 1.
# [2] = tested on: isolated rat brain slices; experiment: voltage sensitive dye imaging of electrically stimulated brain slices; type: cell-based
# Experimental: The compounds described in the above examples display activity in in vitro and in vivo assays that track brain electrical activity. A first assay is conducted using voltage sensitive dye imaging. This is done on isolated rat brain slices kept viable in artificial cerebral spinal fluid (ACSF). Electrically stimulating the slice activates the neural assemblies therein. A voltage sensitive dye, such as, di-4-ANEPPS, is incubated with a brain slice for 1 hour in a suitable solution that enhances the dye penetration into the tissue. The dye reacts to changes in voltage across the cell membrane of the neurons in the brain slice. The example compounds are added to the ACSF at known concentration between 50 and 200 nM. The brain slices are then subjected to an electrical stimulus that activates the neurons in the slice. As the dye reacts to the change in voltage, which can be observed and quantified, the degree to which activation of the brain is dampened by the presence of the example compound is evaluated.
# [3] = detection in rat blood after oral or intravenous administration of Example 1; type: in vivo; conditions: for detection in blood: rats dosed with Example 1 orally or by vein injection, over 24 hours
# Experimental: FIG. 7 is a graph showing the detection of the compounds of Example 1 and Example 2 in rat blood after oral or intravenous administration of the compound of Example 1.
# FIG. 8 is a graph showing the time it takes for the compound of Example 1 to be converted in vivo to the compound of Example 2.
# All rats were dosed with the compound of Example 1 either orally or by vein injection.
# [4] = tested on: voltage-gated sodium channels; experiment: patch clamp electrophysiology on cultured cortical neurons; type: cell-based, rat; conditions: 100 μM
# Experimental: In another assay, the inhibition by the example compounds on the activity of voltage-gated sodium channels is determined using patch clamp electrophysiology. This analysis is done on cultured cortical neurons isolated from rats. […] This was done by assessing the suppression of the voltage gated sodium channel activity 16 ms after a test pulse.
# Under control conditions, recovery occurs at a rate of about 13 ms. In the presence of 100 μM of the compound of Example 1, recovery is slowed to a rate of about 26 ms, and recovery is substantially complete after about 50 ms. […] This is a desirable property for antiseizure compounds, as little or no block of normal function occurs, while reducing (epileptic) activity that occurs at high frequency.
# [5] = tested on: rodent kindling model of epilepsy (partial complex seizures); experiment: amygdala kindling model of epilepsy; type: in vivo, rat; conditions: 20 mg/kg
# Experimental: FIG. 4 is a summary of data showing the prevention, by the compound of Example 1 at a dose of 20 mg/kg, of stage 5 seizures in an animal model of partial complex seizures, using the amygdala kindling model of epilepsy. FIG. 5 is a graph showing that the pre-treatment of rats (20 mg/kg) undergoing the amygdala kindling procedure prevents the development of stage 5 seizures. […] This model produces partial complex seizures that are similar to temporal lobe seizures experienced by humans. […] Therefore, compounds according to the present invention, including preferably the compound of Example 1, may be used in prophylactic treatment or prevention of epileptogenesis.
# [6] = stability in human plasma; type: in vitro ADME; conditions: human plasma dosed with Example 1
# Source text: FIG. 9 is a graph showing the stability of the compound of Example 2 in human plasma once converted from the compound of Example 1.
Structure (SMILES),"induction of seizure (epileptiform) activity in the amygdala by stress ([1]; after moderate traumatic brain injury, tail pinch)","behavioral responses (stage 2 to 3 seizures, Racine scale) ([1]; traumatic brain injury rats)",effect on amplitude and duration of the response [2],suppression of activation of the brain slice activity ([2]; 50 nM) [%],suppression of activation of the brain slice activity ([2]; 200 nM) [%],reduction of activity ([2]; 60 pulses/second) [%],activity at low stimulation frequency ([2]; stimulation frequency of 20 pulses/second),time course of conversion of Example 1 to Example 2 ([3]; rats dosed with 20 mg/kg of Example 1),detection in blood [3],recovery from inactivation [4] [%],time after which recovery is substantially complete [4],rate of recovery of sodium channel inactivation ([4]; control about 13 ms),stage 5 seizures ([5]; oral administration),development of epileptic seizures ([5]; prior prophylactic dosing),stability in human plasma [6]
"COC(=O)c1ccc(C2=CC(=O)CC(C)(C)C2)cc1 [Example 1, Methyl 3′,3′-dimethyl-5′-oxo-2′,3′,4′,5′-tetrahydro-[1,1′-biphenyl]-4-carboxylate]",prevents the induction of seizure activity,blocked,reduced both amplitude and duration of the response,29±5,48±5,48,little or no activity,substantially complete within one hour,only detectable as the free acid,100,about 50 ms,about 26 ms,prevents stage 5 seizures from occurring,prevents the onset of seizures,–
"CC1(C)CC(=O)C=C(c2ccc(C(=O)O)cc2)C1 [Example 2, 3′,3′-Dimethyl-5′-oxo-2′,3′,4′,5′-tetrahydro-[1,1′-biphenyl]-4-carboxylic acid]",–,–,–,–,–,–,–,–,the only molecule detected in significant quantities,–,–,–,–,–,stable and is not further converted to another molecule
